{"source": "patent US20260151379A1", "about": "“SALT TYPE AND CRYSTAL FORM OF COMPLEMENT FACTOR B INHIBITOR, AND PREPARATION METHOD THEREFOR AND APPLICATION THEREOF” (SHANGHAI MEIYUE BIOTECH DEVELOPMENT CO., LTD., priority 2022, published 2026)", "key": {"[1]": {"test": "Liver microsomal stability experiment (human)", "format": "in vitro ADME", "experimental": "(§1) A 0.1 M solution of dipotassium phosphate in distilled water (containing 1 mM ethylenediaminetetraacetic acid) was taken. Then the pH was adjusted to 7.4 with a 0.1 M solution of potassium dihydrogen phosphate in distilled water (containing 1 mM ethylenediaminetetraacetic acid).\n(§2) • Rat: SD Rat Liver Microsomes, Cat. No.: LM-DS-02M, RILD Research Institute for Liver Diseases (Shanghai) Co. Ltd. • Monkey: Cynomolgus Monkey Liver Microsomes, Cat. No.: LM-SXH-02M, RILD Research Institute for Liver Diseases (Shanghai) Co. Ltd. • Human: Pooled Human Liver Microsomes (Mongolian), Cat. No.: LM-R-02M, RILD Research Institute for Liver Diseases (Shanghai) Co. Ltd.\n(§3) A 10 mM solution of each of the control compound and test compounds was prepared in DMSO. Then 10 μL of the solution was added to 190 μL of acetonitrile to form a 0.5 mM stock solution. 1.5 μL of the 0.5 mM stock solution was measured out, and […] of 20 mg/mL liver microsomes and 479.75 μL of the buffer were added. (The actual preparation amount can be adjusted according to use).\n(§4) 10 mg/mL of reduced coenzyme II (NADPH) was prepared in the buffer. A 96-well plate was placed on ice. Wells corresponding to different time points (0, 10, 30, 60 and 90 min, Non-NADPH) were set for each compound. […] The mixture was analyzed on an AB SCIEX ExionLC-Triple Quad 5500 high-performance liquid chromatograph-mass spectrometer. […]"}, "[2]": {"test": "Liver microsomal stability experiment (rat)", "format": "in vitro ADME", "conditions": "rat liver microsomes", "experimental": "as §1, §2, §3, §4"}, "[3]": {"test": "PK of single intragastric administration to cynomolgus monkeys (plasma concentration)", "format": "in vivo", "conditions": "intragastric 3 mpk and 30 mpk, same dose as control compound", "experimental": "(§5) Cynomolgus monkeys were used. Each group consisted of 3 cynomolgus monkeys, and they were given the control compound at 3 mpk, the control compound at 30 mpk, the compound of formula I at 3 mpk, and the compound of formula I at 30 mpk by intragastric administration. Blood was collected at different time points and used for drug concentration analysis and complement activity detection. The compound concentration in plasma was determined by LC-MS/MS. The complement activity in serum was determined using a wieslab assay (Svar Life Science AB, COMPL AP330 RUO) kit, Normal Human Serum (Complement Technology, NHS)."}, "[4]": {"test_system": "cynomolgus monkey serum AP activity", "test": "PD of single intragastric administration to cynomolgus monkeys (serum complement AP activity, wieslab assay)", "format": "in vivo", "conditions": "intragastric 3 mpk and 30 mpk", "experimental": "as §5"}, "[5]": {"test": "Solubility tests in water, SGF, FaSSIF, FeSSIF at 37° C. (Example 5)", "format": "physicochemical", "conditions": "for solubility at 1 h / solubility at 24 h: 37 °C, thermodynamic from solid; for solubility at 1 h: read-out: Solubility (mg/mL) (1 h); for solubility at 24 h: read-out: Solubility (mg/mL) (24 h)", "experimental": "Experimental procedures: 30 mg (in water) or 15 mg of a sample was weighed out and added to a 4 mL vial; 3 mL of a medium to be tested (water, SGF, FaSSIF, or FeSSIF) was added; the mixture was continuously stirred at 37° C.; 0.5 mL of the sample was separately collected at 1 h and 24 h; centrifugation was performed at 12000 rpm for 10 min; the supernatant was diluted with 50% aqueous acetonitrile solution to an appropriate multiple; and the concentration of the supernatant was determined.\nControl and linearity: 10 mg of the compound of formula I was weighed out and added to a 50 mL volumetric flask, 50% aqueous acetonitrile solution was added for dissolution, and the mixture was diluted to volume. Two parts were prepared in parallel. The control of the compound of formula I was taken and diluted with 50% aqueous acetonitrile solution to 100 μg/mL, 50 μg/mL, and 10 μg/mL, 5 μL of the sample was injected, and a standard curve was plotted."}, "[6]": {"test": "Stability tests of compound of formula I and its monohydrochloride, phosphate and maleate (Example 4)", "format": "physicochemical", "experimental": "The stability of the compound of formula I, the monohydrochloride of the compound of formula I in Example 1, the phosphate of the compound of formula I in Example 2, and the maleate of the compound of formula I in Example 3 were investigated.\nStability investigation conditions: 40° C./75% RH-closed, 40° C./75% RH-open, and 60° C.-closed; stability investigation content: changes in related substances and crystal forms.\nDetection of related substances: about 6-7 mg of a sample was separately weighed out and added to a 10 mL volumetric flask; 50% aqueous acetonitrile solution was added for dissolution; the mixture was diluted to volume; and 10 μL of the sample was injected."}, "[7]": {"conditions": "SGF, simulated gastric fluid, SGF"}}, "note": "Like-named read-outs stand apart in the source and are kept apart here."}
{"molecule": "COc1cc(C)c2[nH]ccc2c1CN1CC[C@H](OCC2CC2)C[C@H]1c1ccc(C(=O)O)cc1", "note": "[Compound of formula I]", "values": [{"measurement": "MMS (human) Remaining (T = 90 min)", "setting": "[1]; human liver microsomes, 90 min", "value": 91.04, "unit": "%"}, {"measurement": "Liver microsomal stability (in words)", "setting": "[1]; rat, monkey and human liver microsomes", "value": "significant liver microsomal stability"}, {"measurement": "MMS (rat) Remaining (T = 90 min)", "setting": "[2]", "value": 89.14, "unit": "%"}, {"measurement": "Mean plasma concentration (in words, FIG. 21)", "setting": "[3]", "value": "significantly higher mean plasma concentration than that of the control compound"}, {"measurement": "Inhibition of cynomolgus monkey serum AP activity (in words, FIG. 22)", "setting": "[4]", "value": "can effectively inhibit the cynomolgus monkey serum AP activity"}, {"measurement": "Final pH", "setting": "[5]; FaSSIF", "value": 6.44}, {"measurement": "Solubility (mg/mL) (1 h)", "setting": "[5]; FaSSIF", "value": 0.22, "unit": "mg/mL"}, {"measurement": "Solubility (mg/mL) (24 h)", "setting": "[5]; FaSSIF", "value": 0.19, "unit": "mg/mL"}, {"measurement": "solubility at 1 h", "setting": "[5]; FeSSIF, fessif, FeSSIF", "value": 0.37, "unit": "mg/mL"}, {"measurement": "solubility at 24 h", "setting": "[5]; FeSSIF, fessif, FeSSIF", "value": 0.35, "unit": "mg/mL"}, {"measurement": "Final pH", "setting": "[5]; FessIF", "value": 5.03}, {"measurement": "Final pH", "setting": "[5]; SGF", "value": 1.74}, {"measurement": "solubility at 1 h", "setting": "[5]; [7]", "value": 5.51, "unit": "mg/mL"}, {"measurement": "solubility at 24 h", "setting": "[5]; [7]", "value": 5.48, "unit": "mg/mL"}, {"measurement": "Final pH", "setting": "[5]; Water", "value": 8.73}, {"measurement": "Solubility (mg/mL) (1 h)", "setting": "[5]; Water", "value": 0.37, "unit": "mg/mL"}, {"measurement": "Solubility (mg/mL) (24 h)", "setting": "[5]; Water", "value": 0.31, "unit": "mg/mL"}, {"measurement": "Stability (conclusion in words from Table 7)", "setting": "[6]; 40° C./75% RH closed/open and 60° C. closed, 2 wks, listed as compound of formula I", "value": "stable"}, {"measurement": "Maximum single impurity %", "setting": "[6]; 40° C./75% RH-closed-2 wks", "value": 0.16, "unit": "%"}, {"measurement": "Purity %", "setting": "[6]; 40° C./75% RH-closed-2 wks", "value": 99.23, "unit": "%"}, {"measurement": "Total impurity %", "setting": "[6]; 40° C./75% RH-closed-2 wks", "value": 0.77, "unit": "%"}, {"measurement": "Maximum single impurity %", "setting": "[6]; 40° C./75% RH-open-2 wks", "value": 0.17, "unit": "%"}, {"measurement": "Purity %", "setting": "[6]; 40° C./75% RH-open-2 wks", "value": 99.24, "unit": "%"}, {"measurement": "Total impurity %", "setting": "[6]; 40° C./75% RH-open-2 wks", "value": 0.76, "unit": "%"}, {"measurement": "Maximum single impurity %", "setting": "[6]; 60° C.-closed-2 wks", "value": 0.33, "unit": "%"}, {"measurement": "Purity %", "setting": "[6]; 60° C.-closed-2 wks", "value": 98.95, "unit": "%"}, {"measurement": "Total impurity %", "setting": "[6]; 60° C.-closed-2 wks", "value": 1.05, "unit": "%"}, {"measurement": "Maximum single impurity %", "setting": "[6]; Initial", "value": 0.10, "unit": "%"}, {"measurement": "Purity %", "setting": "[6]; Initial", "value": 99.28, "unit": "%"}, {"measurement": "Total impurity %", "setting": "[6]; Initial", "value": 0.72, "unit": "%"}]}
